Entries after “also recorded” stand apart in the source; their conditions may differ.
Columns and labels:
[1] = tested on: cytokines IL-12p70, IL-4 and IFN-γ; assay: Analysis of cytokine release into serum; assay type: in vivo, C57BL/6 mice; settings: for ratio of cytokines IFN-γ/IL-4: 0.23 nmol intravenously, blood at 18 h (IFN-γ) and 3 h (IL-4), compared to α-GalCer
Protocol: Groups of C57BL/6 mice (n=3) are injected intravenously with 0.23 nmol of the indicated compounds.
Each compound of the invention is supplied as formulated product (see example 3), and diluted in water for delivery (0.23 nmol/mouse) by intravenous injection into the lateral tail vein. In humans the expected therapeutic dose lies in the 50-4800 (μg/m^2) range (Giaccone, Punt et al. 2002). Note, 0.23 nmol in a mouse is a human equivalent dose of 30 μg/m^2 for α-GalCer.
Blood is collected from the lateral tail vein at different time intervals after glycolipid administration. Serum is collected after blood has clotted, and levels of cytokines IL-12p70, IL-4 and IFN-γ are assessed by cytokine bead array technology (Biolpex, Biorad), according to the manufacturer's instructions.

B16.OVA melanoma = assay: Analysis of anti-tumour activity, B16.OVA melanoma challenge; assay type: in vivo, C57BL/6 mice
Protocol: Groups of C57BL/6 mice (n=5) are injected with 1×10^5 live B16.OVA tumour cells subcutaneously on day 0. On day 6 0.23 nmol of the indicated compounds (α-GalCer or CN161) mixed with OVA protein (200 μg) are administered intraveneously. The tumour size is monitored regularly with calipers until the first animal in each group reached 200 mm^2, at which point the whole group is culled.
Control animals are injected with the long peptide alone, α-GalCer alone, or left untreated. The mean tumour sizes per group (n=5)±SEM are shown.
Groups of C57BL/6 mice (n=5) receive a subcutaneous injection into the flank of 1×10^5 B16.OVA melanoma cells, which express a cDNA encoding the chicken ovalbumin (OVA) sequence. The different groups are treated 7 days later, when tumours are fully engrafted, by intravenous injection of one of the following; vaccines as indicated in text and figure legends. Mice are monitored for tumour growth every 3-4 days, and tumour size for each group is calculated as the mean of the products of bisecting diameters (+SEM). Measurements are terminated for each group when the first animal develops a tumour exceeding […].

SVYDFFVWL-loaded targets = assay: In vivo cytotoxic capacity of TRP-2 specific T cells after vaccination; settings: 0.23 nmol compound with long TRP-2 peptide (0.57 nmol) intravenously; targets injected 7 days after vaccination
Protocol: Control animals are injected with the long peptide alone, or α-GalCer alone. […] To discriminate the targets from host tissue, the injected cells are labelled with the fluorescent dye carboxyfluorescein succinimidyl ester (CFSE). A cohort of syngeneic splenocytes (without peptide) labelled with the fluorescent dye cell tracker orange are also injected to serve as controls. Killing is defined as the percentage of peptide-loaded targets killed relative to control cells. Each treatment group contained 5 animals with mean percentage of killing per group±SEM shown.

[2] = tested on: C1498 acute leukemia cells; assay: Analysis of anti-leukemia activity, C1498 challenge; assay type: in vivo, mice
Protocol: The prophylactic vaccines consist of irradiated C1498 cells that are incubated with compounds of the invention for 24 h. Control animals are injected with irradiated C1498 cells alone, compound alone, or left untreated. The time to onset of leukemia-associated symptoms are shown. (A) Analysis of vaccines incorporating CN161. (B) Analysis of vaccines incorporating α-GalCer.
To generate cell-based vaccines, C1498 acute leukemia cells are cultured for 24 h in complete IMDM supplemented with 200 ng/ml of α-GalCer or 200 ng/ml CN161, washed three times with PBS, and γ-irradiated (150 Gy). Vaccines comprising of 7.5×10^5 cells are administered intravenously via the lateral tail vein. Mice are monitored for onset of leukemia-associated symptoms, such as weight loss, hunching or reduced grooming. All experiments are conducted with five animals per treatment group, with controls including a leukemia-only group.

human NKT cells = assay: Proliferation of human NKT cells in PBMC culture; assay type: cell-based; settings: PBMC from one donor, 7 days culture with IL-2
Protocol: Peripheral blood mononuclear cells from one donor are cultured for 7 days with different doses of the indicated compounds in the presence of IL-2, and then the percentages of NKT cells in the final cultures determined by flow cytometry with fluorescent α-GalCer-loaded CD1d tetramers and anti-CD3. Data are expressed as percentage of NKT cells (α-GalCer/CD1d tetramer and anti-CD3-binding cells) of total T cells (all anti-CD3-binding cells).
Peripheral blood is drawn into heparinized tubes, diluted 1:1 in PBS, and layered over a sodium diatrizoate and polysaccharide solution (Lymphoprep; Axis-Shield, Oslo, Norway) before centrifugation at 800×g for 25 minutes at room temperature to collect the peripheral blood mononuclear cell (PBMC) fraction, which contains NKT cells. To assess proliferation of NKT cells, PBMC (2×10^5 per well) are cultured at 37° C. in Iscove's Modified Dulbecco's Medium with 5% human AB serum and the indicated concentrations of α-GalCer, or CN161, with recombinant human IL-2 50 U/mL (Chiron Corporation, Emeryville, Calif.) added after 24 hours. After 7 days of culture, the cells are analysed by flow cytometry, using fluorescent soluble CD1d tetramers that have been loaded with α-GalCer to identify the NKT cells. […]

[3] = cited from earlier work
[4] = in vivo; cited from earlier work
[5] = cell-based vaccine: irradiated C1498 cells incubated with compound (200 ng/ml) for 24 h, intravenously

Compound | ratio of cytokines IFN-γ/IL-4 [1] | antitumour activity against B16.OVA melanoma (tumour growth) (B16.OVA melanoma; 0.23 nmol compound with long TRP2 peptide (0.57 nmol) intravenously) | antitumour activity against B16.OVA melanoma (B16.OVA melanoma; compound with long OVA peptide KISQAVHAAHAEINEAGRESIINFEKLTEWT intravenously) | vaccine adjuvant activity, progression of B16.OVA melanoma (B16.OVA melanoma; therapeutic challenge, 0.23 nmol compound mixed with OVA protein (200 μg) intravenously) | cytotoxic response (killing of peptide-loaded targets) (SVYDFFVWL-loaded targets) | anti-leukemia activity (time to onset of leukemia-associated symptoms) [2, 5] | anti-leukemia activity (time to onset of leukemia-associated symptoms) ([2]; compound injected alone) | proliferation of iNKT cells (percentage of NKT cells of total T cells) (human NKT cells) | time of peak IFN-γ level in the serum ([1]; after injection) [h] | time of peak IL-12p70 level in the serum ([1]; after injection) [h] | time of peak production of IL-4 in the serum ([1]; after injection) [h] | solubility [3] | efficacy in human clinical trials [4]
CCCCCCCCCCCCCCCCCCCCCCCCCC(=O)N[C@@H](CO[C@H]1O[C@@H]2CO[C@@H]2[C@H](O)[C@H]1O)[C@H](O)[C@H](O)CCCCCCCCCCCCCC [CN154, (2S,3S,4R)-1-(4,6-Anhydro-α-D-galactopyranosyloxy)-2-hexacosanoylamino-3,4-octadecandiol] | higher ratio of IFN-γ/IL-4 |  |  |  |  |  |  |  |  |  |  |  | 
CCCCCCCCCCCCCCCCCCCCCCCCCC(=O)N[C@@H](C[C@]1(O)O[C@H](CSSC[C@H]2O[C@@](O)(C[C@H](NC(=O)CCCCCCCCCCCCCCCCCCCCCCCCC)[C@H](O)[C@H](O)CCCCCCCCCCCCCC)[C@H](O)[C@@H](O)[C@H]2O)[C@H](O)[C@H](O)[C@H]1O)[C@H](O)[C@H](O)CCCCCCCCCCCCCC [CN161, 6,6′-Disulfanediylbis[6-deoxy-1-((2S,3S,4R)-3,4-dihydroxy-2-(hexacosanoylamino)octadecyl)-α-D-galactopyranose]] | higher ratio of IFN-γ/IL-4 | delayed tumour growth; also recorded: anti-tumour activity | equivalent anti-tumour activity | potent vaccine adjuvant activity | potent antigen-specific cytotoxicity; also recorded: greater cytotoxic response | anti-leukemia activity; also recorded: significant protection | anti-leukemia activity; also recorded: can provide protection | able to induce the proliferation of iNKT cells |  |  |  |  | 
CCCCCCCCCCCCCCCCCCCCCCCCCC(=O)N[C@@H](CO[C@H]1O[C@H](CO)[C@H](O)[C@H](O)[C@H]1O)[C@H](O)[C@H](O)CCCCCCCCCCCCCC [α-GalCer, α-Galactosylceramide] |  |  |  |  |  | significant protection | not active and not |  | > 12 | 6 | 2 to 3 | poor solubility | lack of efficacy

Source: patent publication US9717790B2, “Sphingoglycolipid analogues” (Victoria Link Limited, priority 2013, dated 2017)
